Tests used:
human H4 receptor = molecular target: T1, human H4 receptor (Homo sapiens, UniProt Q9H3N8); test: [3H]Histamine binding on membranes of CHO cells stably expressing human H4 receptor
T1 construct: expressed in transfected cells
Outline: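 Nonspecific binding defined with 10 μM JNJ 7777120. Bound radioactivity collected on polyethyleneimine-treated GF/B filters and counted by liquid scintillation.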

Compound | Ki or IC50 activity class (human H4 receptor) [nM] | melting point [°C]
CN1CCC(OC(c2ccc(C(F)(F)F)cc2)c2nc3ccccc3[nH]2)CC1 (stereo not shown) [Example 537] | < 1000 | 86
CN1CCC(OC(c2nc3ccccc3[nH]2)c2ccc(C(F)(F)F)cc2F)CC1 (stereo not shown) [Example 540] | < 300 | 91
Cc1ccc(C(OC2CCN(C)CC2)c2nc3ccccc3[nH]2)c(C)c1 (stereo not shown) [Example 541] | < 30 | 120
COc1cccc(C(OC2CCN(C)CC2)c2nc3ccccc3[nH]2)c1 (stereo not shown) [Example 542] | < 30 | 83
CN1CCC(OC(c2ccc3c(c2)OCCC3)c2nc3ccccc3[nH]2)CC1 (stereo not shown) [Example 543] | < 30 | 128
Cc1ccc(C(OC2CCN(C)CC2)c2nc3cc(F)ccc3[nH]2)c(F)c1 (stereo not shown) [Example 548] | < 30 | 90
Cc1ccc(C(OC2CCN(C)CC2)c2nc3ccccc3[nH]2)c(F)c1F (stereo not shown) [Example 551] | < 300 | 80
Cc1ccc(C(OC2CCN(C)CC2)c2nc3ccccc3[nH]2)cc1Cl (stereo not shown) [Example 552] | < 300 | 86
Cc1ccc(C(OC2CCN(C)CC2)c2nc3ccccc3[nH]2)cc1F (stereo not shown) [Example 554] | < 300 | 92
CN1CCC(OC(c2nc3ccccc3[nH]2)c2cc(Br)ccc2F)CC1 (stereo not shown) [Example 555] | < 30 | 232
CN1CCC(OC(c2nc3cc(F)ccc3[nH]2)c2cc(C#CCCCN)ccc2F)CC1 (stereo not shown) [Example 558] | < 30 | 90
CCOC(=O)NCCCC#Cc1ccc(F)c(C(OC2CCN(C)CC2)c2nc3ccccc3[nH]2)c1 (stereo not shown) [Example 560] | < 300 | 87
CN1CCC(OC(c2nc3ccccc3[nH]2)c2ccccc2O)CC1 (stereo not shown) [Example 561, 2-[(1H-benzimidazol-2-yl)(1-methylpiperidin-4-yloxy)methyl]phenol] | < 30 | 118 to 120
CN1CCC(OC(c2nc3ccccc3[nH]2)c2cc(Cl)ccc2O)CC1 (stereo not shown) [Example 569] | < 30 | 185
CCOC(=O)NCCCC#Cc1ccc(F)c(C(OC2CCN(C)CC2)c2nc3cc(F)ccc3[nH]2)c1 (stereo not shown) [Example 570] | < 300 | 95
CN1CCC(OC(c2nc3ccccc3[nH]2)c2cc(OC(F)(F)F)ccc2O)CC1 (stereo not shown) [Example 571] | < 30 | 132
CN1CCC(OC(c2nc3ccccc3[nH]2)c2cc(F)ccc2O)CC1 (stereo not shown) [Example 572] | < 30 | 142
COc1ccc(O)c(C(OC2CCN(C)CC2)c2nc3ccccc3[nH]2)c1 (stereo not shown) [Example 573] | < 300 | 146
Cc1ccc(C(OC2CCN(C)CC2)c2nc3ccccc3[nH]2)c(O)c1 (stereo not shown) [Example 574] | < 30 | 145

Second part, the compound after the results:

Ki or IC50 activity class (human H4 receptor) [nM] | melting point [°C] | Compound
< 30 | 145 | CN1CCC(OC(c2nc3ccccc3[nH]2)c2cc(Br)ccc2O)CC1 (stereo not shown) [Example 575]
< 30 | 213 | CCOc1ccc(O)c(C(OC2CCN(C)CC2)c2nc3ccccc3[nH]2)c1 (stereo not shown) [Example 576]
< 300 | 110 | CN1CCC(OC(c2nc3ccccc3[nH]2)c2cccc3cc[nH]c23)CC1 (stereo not shown) [Example 577]
< 30 | 151 | Cc1ccc(O)c(C(OC2CCN(C)CC2)c2nc3ccccc3[nH]2)c1 (stereo not shown) [Example 578, 2-[(1H-benzimidazol-2-yl)(1-methylpiperidin-4-yloxy)methyl]-4-methylphenol]
< 1000 | 142 | CN1CCC(OC(c2nc3ccccc3[nH]2)c2cc(F)cc(F)c2O)CC1 (stereo not shown) [Example 579]
< 1000 | 161 | CN1CCC(OC(c2nc3ccccc3[nH]2)c2cc(Cl)cc(Cl)c2O)CC1 (stereo not shown) [Example 580]
< 30 | 145 | CN1CCC(OC(c2nc3ccccc3[nH]2)c2cccc(F)c2O)CC1 (stereo not shown) [Example 581]
< 30 | 129 | CN1CCC(OC(c2nc3ccccc3[nH]2)c2c(O)cccc2F)CC1 (stereo not shown) [Example 582]
< 300 | 198 | CN1CCC(OC(c2nc3ccccc3[nH]2)c2cc(F)c(F)cc2O)CC1 (stereo not shown) [Example 583]
< 30 | 140 | CN1CCC(OC(c2nc3ccccc3[nH]2)c2ccc(F)cc2O)CC1 (stereo not shown) [Example 584]
< 30 | 142 | CN1CCC(OC(c2nc3ccccc3[nH]2)c2ccc(Cl)cc2O)CC1 (stereo not shown) [Example 585]
< 30 | 111 | Cc1cccc(C(OC2CCN(C)CC2)c2nc3ccccc3[nH]2)c1O (stereo not shown) [Example 586]
< 30 | 138 | CSc1ccc(O)c(C(OC2CCN(C)CC2)c2nc3ccccc3[nH]2)c1 (stereo not shown) [Example 587]
< 30 | 116 | CCSc1ccc(O)c(C(OC2CCN(C)CC2)c2nc3ccccc3[nH]2)c1 (stereo not shown) [Example 588]
< 1000 | 140 | CN1CCC(OC(c2nc3ccccc3[nH]2)c2cc(-c3ccccc3)ccc2O)CC1 (stereo not shown) [Example 589]
< 1000 | 139 | CN1CCC(OC(c2nc3ccccc3[nH]2)c2cc(C(C)(C)C)ccc2O)CC1 (stereo not shown) [Example 590]
< 300 | 120 | CCCc1ccc(O)c(C(OC2CCN(C)CC2)c2nc3ccccc3[nH]2)c1 (stereo not shown) [Example 591]
< 300 | 112 | COc1cccc(C(OC2CCN(C)CC2)c2nc3ccccc3[nH]2)c1O (stereo not shown) [Example 592]
< 30 | 136 | Cc1cc(O)c(C(OC2CCN(C)CC2)c2nc3ccccc3[nH]2)c(F)c1 (stereo not shown) [Example 593]
< 30 | 145 | CN1CCC(OC(c2nc3ccccc3[nH]2)c2c(O)cccc2Cl)CC1 (stereo not shown) [Example 594]
< 300 | 144 | Cc1cc(F)c(O)c(C(OC2CCN(C)CC2)c2nc3ccccc3[nH]2)c1 (stereo not shown) [Example 595]
< 30 | 120 | CN1CCC(OC(c2nc3ccccc3[nH]2)c2cc(Cc3ccccc3)ccc2O)CC1 (stereo not shown) [Example 596]
< 300 | 135 | CN1CCC(OC(c2nc3ccccc3[nH]2)c2cc(C(F)(F)F)ccc2O)CC1 (stereo not shown) [Example 598]
< 300 | 146 | CN1CCC(OC(c2nc3ccccc3[nH]2)c2cc(Cl)cc(F)c2O)CC1 (stereo not shown) [Example 599]
< 30 | 146 | Cc1cc(F)cc(O)c1C(OC1CCN(C)CC1)c1nc2ccccc2[nH]1 (stereo not shown) [Example 600]

— patent publication US8802664B2 (Bioproject, priority 2010, dated 2014)
